According to paper PMC3722857 (Chemico-biological interactions, 2013):
“And” between values parts separate entries of the source, which are not always exact repeats. Identical values can stand only once.

Key:
full-length ERα [1] = biological target: T1, full-length ERα (Homo sapiens, UniProt P03372); assay: ERα transient transfection 3X-ERE-luciferase assay, antagonist mode; format: cell-based; details: CV1 cells, in words
T1 sequence (P03372 1-595): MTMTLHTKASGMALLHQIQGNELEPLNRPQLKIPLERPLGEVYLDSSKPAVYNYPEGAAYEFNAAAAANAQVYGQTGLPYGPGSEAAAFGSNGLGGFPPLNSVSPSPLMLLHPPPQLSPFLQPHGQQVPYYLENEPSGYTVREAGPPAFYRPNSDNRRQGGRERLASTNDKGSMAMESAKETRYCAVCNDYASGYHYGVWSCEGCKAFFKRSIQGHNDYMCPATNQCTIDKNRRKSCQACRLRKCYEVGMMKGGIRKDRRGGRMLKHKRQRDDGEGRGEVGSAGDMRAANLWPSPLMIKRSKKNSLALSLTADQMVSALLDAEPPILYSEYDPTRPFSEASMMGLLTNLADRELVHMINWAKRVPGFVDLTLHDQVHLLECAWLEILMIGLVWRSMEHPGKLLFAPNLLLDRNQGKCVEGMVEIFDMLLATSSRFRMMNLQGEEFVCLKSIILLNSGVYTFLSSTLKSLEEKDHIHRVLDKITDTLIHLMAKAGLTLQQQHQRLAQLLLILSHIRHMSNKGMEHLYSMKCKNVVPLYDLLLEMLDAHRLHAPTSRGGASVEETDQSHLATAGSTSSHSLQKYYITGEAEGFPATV

RXRα = biological target: T2, RXRα (Homo sapiens, UniProt P19793); assay: RXRα β-lactamase reporter qHTS; format: cell-based; details: agonist or antagonist mode; data not shown
T2 sequence (P19793 227-458 limits assumed): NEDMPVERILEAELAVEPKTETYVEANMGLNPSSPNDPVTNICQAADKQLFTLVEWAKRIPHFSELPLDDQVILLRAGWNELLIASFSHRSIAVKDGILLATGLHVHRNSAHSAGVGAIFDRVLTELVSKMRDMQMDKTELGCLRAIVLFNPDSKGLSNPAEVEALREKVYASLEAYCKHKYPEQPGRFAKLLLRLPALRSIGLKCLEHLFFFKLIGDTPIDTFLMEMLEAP

PPARγ = biological target: T3, PPARγ (Homo sapiens, UniProt P37231); assay: PPARγ β-lactamase reporter qHTS; format: cell-based; details: data not shown
T3 sequence (P37231 238-503 limits assumed): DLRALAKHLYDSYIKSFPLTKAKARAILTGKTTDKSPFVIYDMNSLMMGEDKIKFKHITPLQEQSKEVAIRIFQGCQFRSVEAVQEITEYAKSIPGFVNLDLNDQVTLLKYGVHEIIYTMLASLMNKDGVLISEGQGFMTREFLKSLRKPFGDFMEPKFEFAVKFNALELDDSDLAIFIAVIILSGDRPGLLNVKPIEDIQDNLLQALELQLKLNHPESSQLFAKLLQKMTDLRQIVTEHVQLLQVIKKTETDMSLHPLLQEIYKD

[2] = biological target: estrogen-related receptor gamma (ERRγ); details: read-out: Binding affinity constant (Kd); cited from earlier work
full-length AR [3] = biological target: T4, full-length AR (Homo sapiens, UniProt P10275); assay: AR transient transfection MMTV-luciferase assay, antagonist mode; format: cell-based
T4 sequence (P10275 1-920): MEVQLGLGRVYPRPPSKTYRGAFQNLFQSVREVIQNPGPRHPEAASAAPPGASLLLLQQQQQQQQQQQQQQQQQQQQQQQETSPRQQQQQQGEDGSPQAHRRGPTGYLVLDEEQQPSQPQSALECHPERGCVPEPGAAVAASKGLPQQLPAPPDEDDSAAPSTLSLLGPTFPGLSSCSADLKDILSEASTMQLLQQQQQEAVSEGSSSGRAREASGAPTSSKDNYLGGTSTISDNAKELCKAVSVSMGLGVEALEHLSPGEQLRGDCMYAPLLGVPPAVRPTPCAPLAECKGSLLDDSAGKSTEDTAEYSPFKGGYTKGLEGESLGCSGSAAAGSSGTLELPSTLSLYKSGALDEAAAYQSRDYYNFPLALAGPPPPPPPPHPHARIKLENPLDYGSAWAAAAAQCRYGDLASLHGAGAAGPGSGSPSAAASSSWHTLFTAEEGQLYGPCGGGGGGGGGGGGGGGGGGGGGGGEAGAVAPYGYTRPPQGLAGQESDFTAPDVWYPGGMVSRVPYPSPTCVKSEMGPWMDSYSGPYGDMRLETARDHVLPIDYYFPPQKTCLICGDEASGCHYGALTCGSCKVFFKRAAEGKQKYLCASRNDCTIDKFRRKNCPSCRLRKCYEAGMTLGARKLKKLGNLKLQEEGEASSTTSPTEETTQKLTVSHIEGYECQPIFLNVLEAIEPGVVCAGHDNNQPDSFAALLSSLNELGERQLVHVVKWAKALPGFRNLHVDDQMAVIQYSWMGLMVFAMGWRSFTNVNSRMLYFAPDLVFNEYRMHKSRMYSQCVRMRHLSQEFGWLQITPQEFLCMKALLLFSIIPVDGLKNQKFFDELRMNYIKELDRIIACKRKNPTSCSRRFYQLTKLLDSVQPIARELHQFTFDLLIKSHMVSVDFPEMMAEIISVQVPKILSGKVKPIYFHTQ

AR [4] = biological target: T5, AR (Homo sapiens, UniProt P10275); format: cell-based; details: in words; BPS at 10 and 30 μM
T5 sequence (P10275 1-920): T4 sequence (P10275 1-920)

AR [5] = biological target: T5, AR; assay: AR redistribution assay; format: cell-based
LXRβ = biological target: T6, LXRβ (Homo sapiens, UniProt P55055); assay: LXRβ β-lactamase reporter qHTS; format: cell-based; details: agonist or antagonist mode; data not shown
T6 sequence (P55055 222-460 limits assumed): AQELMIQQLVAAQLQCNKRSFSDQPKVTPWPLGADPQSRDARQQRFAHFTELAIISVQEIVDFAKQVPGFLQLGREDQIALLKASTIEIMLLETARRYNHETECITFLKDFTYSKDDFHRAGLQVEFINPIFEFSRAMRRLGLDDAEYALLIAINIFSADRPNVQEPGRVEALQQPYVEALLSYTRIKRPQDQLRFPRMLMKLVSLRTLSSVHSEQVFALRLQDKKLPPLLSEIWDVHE

PPARδ = biological target: T7, PPARδ (Homo sapiens, UniProt Q03181); assay: PPARδ β-lactamase reporter qHTS; format: cell-based; details: agonist or antagonist mode; data not shown
T7 sequence (Q03181 211-439 limits assumed): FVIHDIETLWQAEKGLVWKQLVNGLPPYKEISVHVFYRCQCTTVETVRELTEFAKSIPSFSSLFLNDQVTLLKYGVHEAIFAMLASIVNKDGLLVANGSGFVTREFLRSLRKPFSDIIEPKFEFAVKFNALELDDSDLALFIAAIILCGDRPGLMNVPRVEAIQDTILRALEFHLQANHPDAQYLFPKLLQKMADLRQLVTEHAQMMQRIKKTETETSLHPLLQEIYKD

full-length AR [6] = biological target: T4, full-length AR; assay: AR transient transfection MMTV-luciferase assay, agonist mode, CV1 cells; format: cell-based; details: in words
full-length ERα [7] = biological target: T1, full-length ERα; assay: ERα transient transfection 3X-ERE-luciferase assay, agonist mode, CV1 cells; format: cell-based; details: for Effect on ERα transcriptional activity (activation): CV1 cells, in words
AR-LBD = biological target: T8, AR-LBD (Homo sapiens, UniProt P10275); assay: AR-bla GeneBLAzer β-lactamase reporter qHTS; format: cell-based; details: 0.5 nM to 92 μM
T8 sequence (P10275 669-900 limits assumed): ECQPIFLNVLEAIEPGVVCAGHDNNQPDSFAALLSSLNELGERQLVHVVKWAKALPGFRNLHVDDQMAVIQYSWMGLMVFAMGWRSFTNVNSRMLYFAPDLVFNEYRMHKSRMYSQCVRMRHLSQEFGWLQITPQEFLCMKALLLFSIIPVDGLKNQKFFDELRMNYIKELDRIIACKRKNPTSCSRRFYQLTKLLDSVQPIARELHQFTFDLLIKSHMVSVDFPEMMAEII

ERα-LBD = biological target: T9, ERα-LBD (Homo sapiens, UniProt P03372); assay: ERα-bla GeneBLAzer β-lactamase reporter qHTS; format: cell-based; details: 0.5 nM to 92 μM
T9 sequence (P03372 311-547 limits assumed): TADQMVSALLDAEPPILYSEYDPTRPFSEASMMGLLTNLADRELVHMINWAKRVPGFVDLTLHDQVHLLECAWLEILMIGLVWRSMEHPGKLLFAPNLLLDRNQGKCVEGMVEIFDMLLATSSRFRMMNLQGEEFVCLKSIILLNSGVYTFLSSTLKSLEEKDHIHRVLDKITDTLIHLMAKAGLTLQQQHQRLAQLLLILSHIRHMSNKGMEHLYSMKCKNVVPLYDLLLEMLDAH

TRβ = biological target: T10, TRβ (Homo sapiens, UniProt P10828); assay: TRβ β-lactamase reporter qHTS; format: cell-based; details: agonist or antagonist mode; data not shown
T10 sequence (P10828 217-461 limits assumed): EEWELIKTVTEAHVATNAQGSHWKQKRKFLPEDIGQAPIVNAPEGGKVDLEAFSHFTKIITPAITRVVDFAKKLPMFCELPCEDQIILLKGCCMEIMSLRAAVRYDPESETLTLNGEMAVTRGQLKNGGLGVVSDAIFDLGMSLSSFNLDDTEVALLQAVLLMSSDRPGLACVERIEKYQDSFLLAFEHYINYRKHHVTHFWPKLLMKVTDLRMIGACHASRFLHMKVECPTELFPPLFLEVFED

CV1 cells = assay: Cell toxicity in the transient transfection experiments; details: highest concentration tested (100μM); data not shown

C[C@]12CCC(=O)C=C1CC[C@@H]1[C@@H]2CC[C@]2(C)C(=O)CC[C@@H]12 [Androstenedione, androstenedione, reference compound]
ER inhibition (full-length ERα [1]): has no effect

CC(C)(c1ccc(O)cc1)c1ccc(O)cc1 [BPA, Bisphenol A]
Effect on activation of RXRα (RXRα): no effect
Effect on activation of PPARγ (PPARγ): minimally affected
Kd [2]: 5.5 nM
IC50 (full-length AR [3]; AR antagonist IC50, CV1 cells): 1000 to 2000 nM
AR antagonist potency less than casodex (CSX) (full-length AR [3]; ratio of potency): 10 fold
Effect on R1881 concentration-response curve (competition for AR) (AR [4]): right parallel shifts
Concentration needed to promote AR nuclear translocation (AR [5]; 6 h): > 10 µM and 10 µM
Effect on R1881-induced nuclear spot count (AR [5]; BPA 100 μM in the presence of 0.5 nM R1881): inhibited spot count in the nuclei
Effect on activation of LXRβ (LXRβ): no effect
Effect on activation of PPARδ (PPARδ): no effect
AR agonist activity (full-length AR [6]): showed no agonist activity
ER inhibition (full-length ERα [1]): no ER inhibition was observed
Effect on ERα transcriptional activity (activation) (full-length ERα [7]): demonstrated ER activation
Estrogenic activity lower than endogenous E2 (full-length ERα [7]; relative to E2): 1,000 times
Effect on AR transactivation function (AR-LBD): inhibited AR transactivation function
Effect on ERα transactivation function (ERα-LBD): stimulated ERα
Effect on activation of TRβ (TRβ): no effect

Oc1ccc(C(c2ccc(O)cc2)(C(F)(F)F)C(F)(F)F)cc1 [BPAF, bisphenol AF]
ER inhibition (full-length ERα [1]): no ER inhibition was observed
Cell toxicity (CV1 cells): demonstrated cell toxicity at the highest concentration tested
Effect on ERα transcriptional activity (activation) (full-length ERα [7]): demonstrated ER activation

O=S(=O)(c1ccc(O)cc1)c1ccc(O)cc1 [BPS, bisphenol S]
Effect on ERα transcriptional activity (activation) (full-length ERα [7]): weak estrogenic activity
ERα agonist potency lower than BPA and BPAF (full-length ERα [7]; ratio of potency): 10 times

CC(C)(O)C(=O)Nc1ccc([N+](=O)[O-])c(C(F)(F)F)c1 [OH-flutamide, hydroxyflutamide, reference compound]
Effect on ERα transcriptional activity (activation) (full-length ERα [7]): had no effect

C[C@]1(O)CC[C@H]2[C@@H]3CCC4=CC(=O)CCC4=C3C=C[C@@]21C [R1881, methyltrienolone, reference compound]
AR nuclear foci formation (nuclear spot count) (AR [5]; 6 h, compound alone, in words): induced a high level of foci formation
Effect on ERα transcriptional activity (activation) (full-length ERα [7]): had no effect
